According to patent publication US7786045B2, “Aryl ether compounds and their preparation and use thereof” (Sinochem Corporation, priority 2005, dated 2010):

Legend:
[1] = system: cucumber downy mildew (Pseudoperonospora cubenis); assay: Whole-plant fungicidal test, cucumber downy mildew; format: in vivo, Pseudoperonospora cubensis
[2] = system: green peach aphids (Myzus persicae); assay: Insecticidal activity, green peach aphids, spraying; conditions: 200 mg/L; mortality after two days
Method: (§1) Determination of insecticidal and acaricidal activities of selected compounds were carried out by following procedure:
(§2) Technical samples were dissolved in mixed solvent (acetone:methanol=1:1), and diluted to required concentration with water containing 0.1% of tween 80.
(§3) The second instar larvae of armyworm (Leucania separata), diamond backmoth (Plutella xylostella) and culex mosquitoes (Culex pipiens pallens), green peach aphids (Myzus persicae) and mite (Tetranychus cinnabarinus) were used in biological test. The method was employed either spraying by airbrush or immersing (larvae of culex mosquitoes). A test solution (0.5 mL) was sprayed at the pressure of 10 psi (about 0.7 kg/cm^2). Percent mortality was determined after two days.

[3] = system: wheat powdery mildew (BLumeria graminis); assay: Whole-plant fungicidal test, protectant activity, wheat powdery mildew; format: in vivo; conditions: for control against wheat powdery mildew: 500 mg/L
wheat powdery mildew = assay: Whole-plant fungicidal test, curative activity, wheat powdery mildew; format: in vivo, Erysiphe graminis; conditions: for inhibition at 0.39 µg/mL / inhibition at 0.78 µg/mL / inhibition at 1.56 µg/mL / inhibition at 3.125 µg/mL / inhibition at 6.25 µg/mL / inhibition at 12.5 µg/mL: Triticum aestivum, 96 h, read-out: 4 day curative activity (%) against wheat powdery mildew
[4] = system: cucumber grey mold (Botrytis cinerea); assay: Whole-plant fungicidal test, cucumber grey mold; format: in vivo; conditions: 500 mg/L
[5] = system: cucumber anthracnose (Colletotrichum lagenarium); assay: Whole-plant fungicidal test, cucumber anthracnose; format: in vivo
[6] = system: rice sheath blight (Rhizoctonia solani); assay: Whole-plant fungicidal test, protectant activity, rice sheath blight; format: in vivo
[7] = system: rice blast (Pyricularia oryzae); format: in vivo; conditions: in words
[8] = system: tomato late blight (Phytophthora infestans); format: in vivo; conditions: in words
[9] = system: cucumber powdery mildew (Sphaerotheca fuliginea); assay: Whole-plant fungicidal test, cucumber powdery mildew; format: in vivo; conditions: in words
[10] = system: cucumber scab (Cladosporium cucumerinum); assay: Whole-plant fungicidal test, cucumber scab; format: in vivo; conditions: in words
[11] = system: apple alternaria rot (valsa mali); assay: Whole-plant fungicidal test, apple alternaria rot; format: in vivo; conditions: in words
[12] = system: rape sclerotinia stem rot (Sclerotinia sclerotiorum); assay: Whole-plant fungicidal test, rape sclerotinia stem rot; format: in vivo; conditions: in words
[13] = system: tomato cercospora leaf mold (Fulvia fulva); assay: Whole-plant fungicidal test, tomato cercospora leaf mold; format: in vivo; conditions: in words
[14] = system: corn southern leaf blight (Helminthosporium maydis); assay: Whole-plant fungicidal test, corn southern leaf blight; format: in vivo; conditions: in words
Method: Protectant and curative activity of experimental compounds are tested with whole plants. […] For the protectant method, test solution was sprayed onto potted plant. Pathogen inoculation was carried out after 24 hours then plants were hold in growth chambers containing constant temperature and moisture for effect. When untreated plant was under desirable disease severity (after 1 week approximately), assessment were carried out by visual observation. Test plant inoculated with fungus for 4 days are sprayed with the solution of a compound and then cultured in green house for 3-4 days. The curative activity is assessed based on the control plant's index of disease.

[15] = system: wheat head blight (Fusarium graminearum); format: in vivo; conditions: in words
[16] = system: diamond backmoth (Plutella xylostella); assay: Insecticidal activity, diamond backmoth, spraying; conditions: 200 mg/L; mortality after two days
Method: as §1, §2, §3

COC(=O)N(OC)c1ccccc1COc1cc(-c2ccc(SC)cc2)nn1C [Compound 8]
control against cucumber downy mildew ([1]; 500 mg/L): 100%

COC(=O)N(OC)c1ccccc1COc1cc(-c2ccc(Br)cc2)nn1C [Compound 15]
control against cucumber downy mildew ([1]; 25 mg/L): 100% | control against cucumber downy mildew ([1]; 500 mg/L): 100% | control of green peach aphids [2]: 90%

COC(=O)N(OC)c1ccccc1COc1cc(-c2ccccc2)nn1C [Compound 1]
control against cucumber downy mildew ([1]; 500 mg/L): 100%

CNC(=O)C(=NOC)c1ccccc1COc1cc(-c2cccs2)nn1C [Compound 415]
control against cucumber downy mildew ([1]; 500 mg/L): 100%

CO/N=C(/C(=O)OC)c1ccccc1COc1ccccc1C [Kresoxim methyl, reference compound]
inhibition at 0.39 µg/mL ([3]; Blumeria graminis, 24 h, 0.39 mg/L, read-out: 1 day protection activity (%) against wheat powdery mildew): 0% | inhibition at 0.78 µg/mL ([3]; Blumeria graminis, 24 h, 0.78 mg/L, read-out: 1 day protection activity (%) against wheat powdery mildew): 15% | inhibition at 1.56 µg/mL ([3]; Blumeria graminis, 24 h, 1.56 mg/L, read-out: 1 day protection activity (%) against wheat powdery mildew): 40% | inhibition at 3.125 µg/mL ([3]; Blumeria graminis, 24 h, 3.125 mg/L, read-out: 1 day protection activity (%) against wheat powdery mildew): 70% | inhibition at 6.25 µg/mL ([3]; Blumeria graminis, 24 h, 6.25 mg/L, read-out: 1 day protection activity (%) against wheat powdery mildew): 98% | inhibition at 12.5 µg/mL ([3]; Blumeria graminis, 24 h, 12.5 mg/L, read-out: 1 day protection activity (%) against wheat powdery mildew): 100% | inhibition at 25 µg/mL ([3]; Blumeria graminis, 24 h, 25 mg/L, read-out: 1 day protection activity (%) against wheat powdery mildew): 100% | inhibition at 0.39 µg/mL (wheat powdery mildew; 0.39 mg/L): 0% | inhibition at 0.78 µg/mL (wheat powdery mildew; 0.78 mg/L): 0% | inhibition at 1.56 µg/mL (wheat powdery mildew; 1.56 mg/L): 10% | inhibition at 3.125 µg/mL (wheat powdery mildew; 3.125 mg/L): 15% | inhibition at 6.25 µg/mL (wheat powdery mildew; 6.25 mg/L): 20% | inhibition at 12.5 µg/mL (wheat powdery mildew; 12.5 mg/L): 100%

CON=C(C(=O)OC)c1ccccc1COc1cc(-c2cccs2)nn1C [Compound 391]
control against cucumber downy mildew ([1]; 500 mg/L): 90%

COC(=O)N(OC)c1ccccc1COc1ccn(-c2ccc(Cl)cc2)n1 [pyraclostrobin]
inhibition at 0.39 µg/mL (wheat powdery mildew; 0.39 mg/L): 0% | inhibition at 0.78 µg/mL (wheat powdery mildew; 0.78 mg/L): 25% | inhibition at 1.56 µg/mL (wheat powdery mildew; 1.56 mg/L): 60% | inhibition at 3.125 µg/mL (wheat powdery mildew; 3.125 mg/L): 85% | inhibition at 6.25 µg/mL (wheat powdery mildew; 6.25 mg/L): 100% | inhibition at 12.5 µg/mL (wheat powdery mildew; 12.5 mg/L): 100%

COC(=O)N(OC)c1ccccc1COc1c(C)c(-c2ccc(C)cc2)nn1C [Compound 78]
control against wheat powdery mildew [3]: 100% | control against cucumber downy mildew ([1]; 25 mg/L): 100% | control against cucumber downy mildew ([1]; 500 mg/L): 100%

COC=C(C(=O)OC)c1ccccc1COc1cc(-c2cccs2)nn1C [Compound 367]
control against cucumber downy mildew ([1]; 500 mg/L): 100%

COC(=O)N(OC)c1ccccc1COc1cc(-c2ccc(C)cc2)nn1C [Compound 16]
control against wheat powdery mildew [3]: 100%

COC=C(C(=O)OC)c1ccccc1-c1cc(Oc2cc(-c3ccc(Cl)cc3)nn2C(C)C)ncn1 [Compound 194]
control against cucumber downy mildew ([1]; 500 mg/L): 100%

COC(=O)N(OC)c1ccccc1COc1cc(-c2ccc(Cl)cc2Cl)nn1C [Compound 10]
control against wheat powdery mildew [3]: 100% | control against cucumber downy mildew ([1]; 500 mg/L): 100%

COC(=O)N(OC)c1ccccc1COc1cc(-c2ccc(Cl)nc2)nn1C [Compound 21]
control against wheat powdery mildew [3]: 100% | control against cucumber grey mold [4]: 100%

COC(=O)N(OC)c1ccccc1COc1cc(-c2ccccc2Cl)nn1C [Compound 20]
control against wheat powdery mildew [3]: 100% | control against cucumber downy mildew ([1]; 25 mg/L): 100% | control against cucumber downy mildew ([1]; 500 mg/L): 100%

COC(=O)N(OC)c1ccccc1COc1c(C)c(-c2ccccc2)nn1C [Compound 63]
1 day protection activity (%) against wheat powdery mildew ([3]; 0.19 mg/L): 55% | 1 day protection activity (%) against wheat powdery mildew ([3]; 0.39 mg/L): 75% | 1 day protection activity (%) against wheat powdery mildew ([3]; 0.78 mg/L): 95% | 1 day protection activity (%) against wheat powdery mildew ([3]; 1.56 mg/L): 100% | 1 day protection activity (%) against wheat powdery mildew ([3]; 3.125 mg/L): 100% | 1 day protection activity (%) against wheat powdery mildew ([3]; 6.25 mg/L): 100% | 1 day protection activity (%) against wheat powdery mildew ([3]; 12.5 mg/L): 100% | 1 day protection activity (%) against wheat powdery mildew ([3]; 25 mg/L): 100% | control against wheat powdery mildew [3]: 100% | activity against wheat powdery mildew ([3]; in words): excellent activity | control against cucumber downy mildew ([1]; 25 mg/L): 100% | control against cucumber downy mildew ([1]; 500 mg/L): 100% | activity against cucumber downy mildew ([1]; in words): excellent activity | control against cucumber anthracnose ([5]; 1.56 mg/L): 100% | control against cucumber anthracnose ([5]; 100 mg/L): 100% | activity against cucumber anthracnose ([5]; in words): excellent activity | 1 day protection activity (%) against rice sheath blight ([6]; 1.5625 mg/L): 55% | 1 day protection activity (%) against rice sheath blight ([6]; 3.125 mg/L): 60% | 1 day protection activity (%) against rice sheath blight ([6]; 6.25 mg/L): 65% | 1 day protection activity (%) against rice sheath blight ([6]; 12.5 mg/L): 75% | 1 day protection activity (%) against rice sheath blight ([6]; 25 mg/L): 80% | 1 day protection activity (%) against rice sheath blight ([6]; 50 mg/L): 100% | 1 day protection activity (%) against rice sheath blight ([6]; 100 mg/L): 100% | activity against rice sheath blight ([6]; in words): excellent activity | 4 day curative activity (%) against wheat powdery mildew (wheat powdery mildew; 0.39 mg/L): 50% | 4 day curative activity (%) against wheat powdery mildew (wheat powdery mildew; 0.78 mg/L): 80% | 4 day curative activity (%) against wheat powdery mildew (wheat powdery mildew; 1.56 mg/L): 100% | 4 day curative activity (%) against wheat powdery mildew (wheat powdery mildew; 3.125 mg/L): 100% | 4 day curative activity (%) against wheat powdery mildew (wheat powdery mildew; 6.25 mg/L): 100% | 4 day curative activity (%) against wheat powdery mildew (wheat powdery mildew; 12.5 mg/L): 100% | activity against rice blast [7]: excellent activity | activity against tomato late blight [8]: excellent activity | activity against cucumber powdery mildew [9]: excellent activity | activity on cucumber scab [10]: good activity | activity on apple alternaria rot [11]: good activity | activity on rape sclerotinia stem rot [12]: good activity | activity against tomato cercospora leaf mold [13]: moderate activity | activity against corn southern leaf blight [14]: moderate activity | activity against wheat head blight [15]: moderate activity | control of diamond backmoth [16]: 100%

COC(=O)NC(=S)Nc1ccccc1NC(=S)NC(=O)OC [triophanate-methyl, reference compound]
1 day protection activity (%) against rice sheath blight ([6]; 1.5625 mg/L): 0% | 1 day protection activity (%) against rice sheath blight ([6]; 3.125 mg/L): 0% | 1 day protection activity (%) against rice sheath blight ([6]; 6.25 mg/L): 0% | 1 day protection activity (%) against rice sheath blight ([6]; 12.5 mg/L): 0% | 1 day protection activity (%) against rice sheath blight ([6]; 25 mg/L): 20% | 1 day protection activity (%) against rice sheath blight ([6]; 50 mg/L): 55% | 1 day protection activity (%) against rice sheath blight ([6]; 100 mg/L): 75%

COC(=O)N(OC)c1ccccc1COc1cc(-c2ccc(Cl)cc2)nn1C(C)C [Compound 11]
control against cucumber downy mildew ([1]; 500 mg/L): 90%

CC(C)(C)C(O)(CCc1ccc(Cl)cc1)Cn1cncn1 (stereo not drawn) [tebuconazole]
inhibition at 0.39 µg/mL (wheat powdery mildew; 0.39 mg/L): 0% | inhibition at 0.78 µg/mL (wheat powdery mildew; 0.78 mg/L): 0% | inhibition at 1.56 µg/mL (wheat powdery mildew; 1.56 mg/L): 15% | inhibition at 3.125 µg/mL (wheat powdery mildew; 3.125 mg/L): 45% | inhibition at 6.25 µg/mL (wheat powdery mildew; 6.25 mg/L): 70% | inhibition at 12.5 µg/mL (wheat powdery mildew; 12.5 mg/L): 85%
